Reference: patent EP2667887B1, “PHARMACEUTICAL COMPOSITION COMPRISING THE PEPTIDE GLU-ASP-GLY AND USE FOR TREATING HELICOBACTER PYLORI INDUCED GASTRODUODENAL DISEASES” («Garmonia», Ltd., priority 2011, dated 2012)

Legend:
[1] = tested on: mice embryonic fibroblasts (MEF+/+, knockout mice line LMNA); experiment: Effect on Helicobacter pylori-induced mitochondrial damage in mouse embryonic fibroblasts (mito-GFP confocal microscopy); type: cell-based; conditions: peptide 10 µM added 30 minutes before Helicobacter pylori (strain Cag J117), 7 hours incubation; compared to control
Experimental: A study of the effect of a pharmaceutical composition comprising the peptide H-Glu-Asp-Gly-OH as an active substance on molecular and cellular mechanisms of apoptosis was carried out on a wild type of mice embryonic fibroblasts (MEF+/+, knockout mice line LMNA). Cells were cultivated at 37°C in a damp incubation medium containing 5% CO2 in DMEM (Dulbecco's Modified Eagle's Medium, ICN Biomedicals) and 10% calf embryonic serum. Preliminary sorting of cells for passaging in a 1:3-1:5 ratio was performed using a mixture of 0.125% trypsin, 0.02M EDTA (ethylenediaminetetraacetic acid), 0.02% glucose dissolved in a phosphate buffer. Cells were passaged in a culturing medium for 5 days and then taken for the study.
On the 5th day after the beginning of passaging of the cells peptide H-Glu-Asp-Gly-OH was added in the culturing medium in the dose of 10 µM, and in 30 minutes the cells were taken for study. […]
The status of isolated mitochondria was evaluated using immunofluorescent confocal laser microscopy. […]
(§1) Confocal microscopy of mitochondria with optical density evaluation was carried out in an inverted confocal microscope Olympus Fluoview CM FV300-IX70 using an apochromatic lens 606 UPlan (Olympus). A 488 nm excitation wave of argon laser was used in each chamber to specify mito-GFP fluorescence that verifies the structure of mitochondria.

[2] = tested on: gastric epithelial cell mitochondria; experiment: Mitochondrial GFP expression in gastric epithelium after ulcer induction (confocal microscopy, in vivo study); design: species or system Sprague Dawley rats; conditions: both methods, three doses
Experimental: The study was carried out on 90 male Sprague Dawley rats (180-220 g) randomly subdivided into 9 groups (10 animals per group): • Group 1 - intact rats (saline solution) • Group 2 - modeled ulcer + saline solution • Group 3 (6 subgroups) - modeled ulcer + H-Glu-Asp-Gly-OH • Group 4 - modeled ulcer + Klacid antibiotic
Ulcer was modeled by three-time administration (in 4 hours) in the rat stomach of cysteamine-HCL (Aldrich, Milwannee, WI) by means of a probe in the dose of 25 mg per 100 g of body weight. The ulcer, approximately 28 mm^2 in size, appeared at the boundary between antral and fundal segments of the stomach 12 hours after the last administration. Simultaneously with the first administration of cysteamine-HCL a Helicobacter pylori culture (Curtin Matheson Scientific Inc, strain Cag J117, 100 microbial cells) was administered in the rat stomach through the same probe.
A means on the basis of the pharmaceutical composition comprising the studied peptide H-Glu-Asp-Gly-OH was administered subcutaneously in the dose of 1 µg per kg of animal body weight (group 3a), 2,5 µg per kg of body weight (group 3b) and 10 µg per kg of body weight (group 3c) in 0,5 ml of saline solution daily, for 5 days from the occurrence of the stomach ulcer.
The means on the basis of the pharmaceutical composition comprising the studied peptide H-Glu-Asp-Gly-OH was administered intragastrically (through a probe) in the dose of 1 µg per kg of animal body weight (group 3d), 2,5 µg per kg of body weight (group 3e) and 10 µg per kg of body weight (group 3f) in 0,5 ml of saline solution daily, for 5 days from the occurrence of the stomach ulcer. […]
The status of isolated mitochondria was assessed using immunofluorescent confocal laser microscopy. […]
as §1

[3] = Acute toxicity study, single administration; type: in vivo, white mongrel male mice; conditions: mice, single intramuscular administration, 1-5 mg/kg; dose exceeds the therapeutic dose by more than 5000 times
Experimental: General toxicity of peptide H-Glu-Asp-Gly-OH was studied in accordance with the requirements of "Manual for Experimental (Pre-Clinical) Study of New Pharmacological Substances" (2000): acute toxicity in case of a single administration of the preparation, as well as subacute and chronic toxicity in case of a long-term administration of the peptide.
Acute toxicity study was carried out on 66 white mongrel male mice with body weight 20-22 g. The animals were randomly subdivided into 6 equal groups. The preparation was administered to the animals once, intramuscularly in the doses of 1, 2, 3, 4, 5 mg/kg in 0,25 ml of sterile 0,9% NaCl solution. Control animals were treated with 0,9% NaCl solution in the same volume.

## glutamyl-aspartyl-glycine [H-Glu-Asp-Gly-OH]
[1]
  luminescence of mitochondrial GFP in terms of optical density values: exceeded the control indices
[2]; 7th day after ulcer induction, intact 3.12±0.22, ulcer 0.54±0.02
  mitochondrial GFP expression (optical density), 7th day: 2.86±0.21 conv. units
[2]; 15th day after ulcer induction, intact 3.17±0.18, ulcer 0.87±0.04
  mitochondrial GFP expression (optical density), 15th day: 3.03±0.16 conv. units
[2]; 21st day after ulcer induction, intact 3.19±0.18, ulcer 1.67±0.09
  mitochondrial GFP expression (optical density), 21st day: 3.16±0.18 conv. units
[3]
  acute toxicity: does not cause toxic reactions
